Test results as given in US9474790B2, “Stable, protracted GLP-1/glucagon receptor co-agonists for medical use” (Novo Nordisk A/S, priority 2013, dated 2016).
Numbered stars: 1 amine (or outer) side, 2 acyl side, 3 side chain; on linkers, the order of the positions; unused ones are H or OH. Square brackets hold non-standard residues; d marks the D form. Side chains are listed from the residue outwards. Peptide text beside a SMILES is read from it. * marks the point of attachment. C18 diacid = O=C(O)CCCCCCCCCCCCCCCCC(=O)*; γGlu = O=C(O)[C@H](CCC(=O)[*:2])N[*:1]; Ac4c = NC1(C(=O)O)CCC1; AEEA = NCCOCCOCC(=O)O; Aib = CC(C)(N)C(=O)O

target: T1, human glucagon receptor (Homo sapiens, UniProt P47871); assay: Glucagon receptor binding, 125I-glucagon displacement SPA on isolated membranes; details: displacement of 125I-glucagon from membranes; read-out: IC50 GlucR
T1 construct: expressed in transfected cells; host or cells: BHK cells (parent BHK570, CRE luciferase clone BHK/KZ10-20-48), clone pLJ6'-4-25
How it was run: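 Displacement IC50 derived by non-linear regression of SPA counts after 2 h, 25 °C incubation of compound with [125I]-glucagon (480 pM solution, 25 μl) and membranes of hGCGR-transfected BHK cells. Buffer was HEPES pH 7.4 with ovalbumin; serum albumin was held at 0.001% max or 0.2% final.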

T1 sequence (P47871 26-477): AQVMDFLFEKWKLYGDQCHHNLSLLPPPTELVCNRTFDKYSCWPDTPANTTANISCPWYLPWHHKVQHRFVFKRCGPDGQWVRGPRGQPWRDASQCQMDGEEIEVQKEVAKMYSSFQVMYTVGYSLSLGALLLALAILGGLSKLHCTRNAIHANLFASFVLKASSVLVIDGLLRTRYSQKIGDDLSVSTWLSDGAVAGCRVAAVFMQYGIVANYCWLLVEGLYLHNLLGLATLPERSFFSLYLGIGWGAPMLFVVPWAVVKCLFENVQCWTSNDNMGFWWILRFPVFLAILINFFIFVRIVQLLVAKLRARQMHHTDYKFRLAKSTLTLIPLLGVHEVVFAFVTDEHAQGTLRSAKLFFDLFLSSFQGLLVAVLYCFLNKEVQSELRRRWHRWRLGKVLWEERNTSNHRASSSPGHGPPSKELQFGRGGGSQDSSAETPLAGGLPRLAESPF

Compound	IC50
CC(C)C[C@H](NC(=O)[C@H](CC(=O)O)NC(=O)[C@H](CC(C)C)NC(=O)[C@H](Cc1ccc(O)cc1)NC(=O)[C@H](CCCNC(=N)N)NC(=O)[C@H](CO)NC(=O)[C@H](CC(C)C)NC(=O)[C@H](CC(=O)O)NC(=O)[C@H](CO)NC(=O)[C@@H](NC(=O)[C@H](Cc1ccccc1)NC(=O)[C@@H](NC(=O)CNC(=O)[C@H](CCC(N)=O)NC(=O)C1(NC(=O)[C@@H](N)Cc2c[nH]cn2)CCC1)[C@@H](C)O)[C@@H](C)O)C(=O)N[C@@H](CCCNC(=N)N)C(=O)N[C@@H](CCCNC(=N)N)C(=O)N[C@@H](C)C(=O)N[C@@H](CCCNC(=N)N)C(=O)N[C@@H](CC(=O)O)C(=O)N[C@@H](Cc1ccccc1)C(=O)N[C@H](C(=O)N[C@@H](CCC(N)=O)C(=O)N[C@@H](Cc1c[nH]c2ccccc12)C(=O)N[C@@H](CC(C)C)C(=O)N[C@@H](CC(C)C)C(=O)N[C@@H](CCCCNC(=O)CC[C@H](NC(=O)CC[C@H](NC(=O)COCCOCCNC(=O)COCCOCCNC(=O)CC[C@H](NC(=O)CC[C@H](NC(=O)CCCCCCCCCCCCCCCCC(=O)O)C(=O)O)C(=O)O)C(=O)O)C(=O)O)C(=O)N[C@H](C(N)=O)[C@@H](C)O)C(C)C [Example 46, N^ε28-[(4S)-4-carboxy-4-[[(4S)-4-carboxy-4-[[2-[2-[2-[[2-[2-[2-[[(4S)-4-carboxy-4-[[(4S)-4-carboxy-4-(17-carboxyheptadecanoylamino)butanoyl]amino]butanoyl]amino]ethoxy]ethoxy]acetyl]amino]ethoxy]ethoxy]acetyl]amino]butanoyl]amino]butanoyl]-[Acb2,Leu10,Arg12,Leu16,Arg20,Leu27,Lys28]-Glucagon amide] (H-H[Ac4c]QGTFTSDLSRYLDLRRARDFVQWLLK([γGlu-γGlu-AEEA-AEEA-γGlu-γGlu-C18 diacid])T-NH2; N-terminus assumed)	8.5 nM
CC(C)C[C@H](NC(=O)[C@H](CC(=O)O)NC(=O)[C@H](CC(C)C)NC(=O)[C@H](Cc1ccc(O)cc1)NC(=O)[C@H](CCCCN)NC(=O)[C@H](CO)NC(=O)[C@H](CC(C)C)NC(=O)[C@H](CC(=O)O)NC(=O)[C@H](CO)NC(=O)[C@@H](NC(=O)[C@H](Cc1ccccc1)NC(=O)[C@@H](NC(=O)CNC(=O)[C@H](CCC(N)=O)NC(=O)C1(NC(=O)[C@@H](N)Cc2c[nH]cn2)CCC1)[C@@H](C)O)[C@@H](C)O)C(=O)N[C@@H](CCCCN)C(=O)N[C@@H](CCCNC(=N)N)C(=O)N[C@@H](C)C(=O)N[C@@H](CCCNC(=N)N)C(=O)N[C@@H](CCC(=O)O)C(=O)N[C@@H](Cc1ccccc1)C(=O)N[C@H](C(=O)N[C@@H](CCC(N)=O)C(=O)N[C@@H](Cc1c[nH]c2ccccc12)C(=O)N[C@@H](CC(C)C)C(=O)N[C@@H](CC(C)C)C(=O)N[C@@H](CCCCNC(=O)CC[C@H](NC(=O)CC[C@H](NC(=O)COCCOCCNC(=O)COCCOCCNC(=O)CC[C@H](NC(=O)CC[C@H](NC(=O)CCCCCCCCCCCCCCCCC(=O)O)C(=O)O)C(=O)O)C(=O)O)C(=O)O)C(=O)N[C@H](C(N)=O)[C@@H](C)O)C(C)C [Example 47, N^ε28-[(4S)-4-carboxy-4-[[(4S)-4-carboxy-4-[[2-[2-[2-[[2-[2-[2-[[(4S)-4-carboxy-4-[[(4S)-4-carboxy-4-(17-carboxyheptadecanoylamino)butanoyl]amino]butanoyl]amino]ethoxy]ethoxy]acetyl]amino]ethoxy]ethoxy]acetyl]amino]butanoyl]amino]butanoyl]-[Acb2,Leu10,Leu16,Lys17,Arg20,Glu21,Leu27,Lys28]-Glucagon amide] (H-H[Ac4c]QGTFTSDLSKYLDLKRAREFVQWLLK([γGlu-γGlu-AEEA-AEEA-γGlu-γGlu-C18 diacid])T-NH2; N-terminus assumed)	1.5 nM
CC(C)C[C@H](NC(=O)[C@H](CC(=O)O)NC(=O)[C@H](CC(C)C)NC(=O)[C@H](Cc1ccc(O)cc1)NC(=O)[C@H](CCCCN)NC(=O)[C@H](CO)NC(=O)[C@H](CC(C)C)NC(=O)[C@H](CC(=O)O)NC(=O)[C@H](CO)NC(=O)[C@@H](NC(=O)[C@H](Cc1ccccc1)NC(=O)[C@@H](NC(=O)CNC(=O)[C@H](CCC(N)=O)NC(=O)C1(NC(=O)[C@@H](N)Cc2c[nH]cn2)CCC1)[C@@H](C)O)[C@@H](C)O)C(=O)N[C@@H](CCCNC(=N)N)C(=O)N[C@@H](CCCNC(=N)N)C(=O)N[C@@H](C)C(=O)N[C@@H](CCCNC(=N)N)C(=O)N[C@@H](CCC(=O)O)C(=O)N[C@@H](Cc1ccccc1)C(=O)N[C@H](C(=O)N[C@@H](CCC(N)=O)C(=O)N[C@@H](Cc1c[nH]c2ccccc12)C(=O)N[C@@H](CC(C)C)C(=O)N[C@@H](CC(C)C)C(=O)N[C@@H](CCCCNC(=O)CC[C@H](NC(=O)CC[C@H](NC(=O)COCCOCCNC(=O)COCCOCCNC(=O)CC[C@H](NC(=O)CC[C@H](NC(=O)CCCCCCCCCCCCCCCCC(=O)O)C(=O)O)C(=O)O)C(=O)O)C(=O)O)C(=O)N[C@H](C(N)=O)[C@@H](C)O)C(C)C [Example 49, N^ε28-[(4S)-4-carboxy-4-[[(4S)-4-carboxy-4-[[2-[2-[2-[[2-[2-[2-[[(4S)-4-carboxy-4-[[(4S)-4-carboxy-4-(17-carboxyheptadecanoylamino)butanoyl]amino]butanoyl]amino]ethoxy]ethoxy]acetyl]amino]ethoxy]ethoxy]acetyl]amino]butanoyl]amino]butanoyl]-[Acb2,Leu10,Leu16,Arg20,Glu21,Leu27,Lys28]-Glucagon amide] (H-H[Ac4c]QGTFTSDLSKYLDLRRAREFVQWLLK([γGlu-γGlu-AEEA-AEEA-γGlu-γGlu-C18 diacid])T-NH2; N-terminus assumed)	1.7 nM

Next, values leading:

IC50	Compound
1.4 nM	CC(C)C[C@H](NC(=O)[C@H](Cc1c[nH]c2ccccc12)NC(=O)[C@H](CCC(N)=O)NC(=O)[C@@H](NC(=O)[C@H](Cc1ccccc1)NC(=O)[C@H](CCC(=O)O)NC(=O)[C@H](CCCNC(=N)N)NC(=O)[C@H](C)NC(=O)[C@H](CCCNC(=N)N)NC(=O)[C@H](CCCNC(=N)N)NC(=O)C(C)(C)NC(=O)[C@H](CC(=O)O)NC(=O)[C@H](CC(C)C)NC(=O)[C@H](Cc1ccc(O)cc1)NC(=O)[C@H](CCCCN)NC(=O)[C@H](CO)NC(=O)[C@H](CC(C)C)NC(=O)[C@H](CC(=O)O)NC(=O)[C@H](CO)NC(=O)[C@@H](NC(=O)[C@H](Cc1ccccc1)NC(=O)[C@@H](NC(=O)CNC(=O)[C@H](CCC(N)=O)NC(=O)C(C)(C)NC(=O)[C@@H](N)Cc1c[nH]cn1)[C@@H](C)O)[C@@H](C)O)C(C)C)C(=O)N[C@@H](CC(C)C)C(=O)N[C@@H](CCCCNC(=O)CC[C@H](NC(=O)CC[C@H](NC(=O)COCCOCCNC(=O)COCCOCCNC(=O)CC[C@H](NC(=O)CCCCCCCCCCCCCCCCC(=O)O)C(=O)O)C(=O)O)C(=O)O)C(=O)N[C@H](C(N)=O)[C@@H](C)O [Example 51, N^ε28-[(4S)-4-carboxy-4-[[(4S)-4-carboxy-4-[[2-[2-[2-[[2-[2-[2-[[(4S)-4-carboxy-4-(17-carboxyheptadecanoylamino)butanoyl]amino]ethoxy]ethoxy]acetyl]amino]ethoxy]ethoxy]acetyl]amino]butanoyl]amino]butanoyl]-[Aib2,Leu10,Aib16,Arg20,Glu21,Leu27,Lys28]-Glucagon amide] (H-H[Aib]QGTFTSDLSKYLD[Aib]RRAREFVQWLLK([γGlu-γGlu-AEEA-AEEA-γGlu-C18 diacid])T-NH2; N-terminus assumed)
1.7 nM	CC(C)C[C@H](NC(=O)[C@H](Cc1ccc(O)cc1)NC(=O)[C@H](CCCCN)NC(=O)[C@H](CO)NC(=O)[C@H](CC(C)C)NC(=O)[C@H](CC(=O)O)NC(=O)[C@H](CO)NC(=O)[C@@H](NC(=O)[C@H](Cc1ccccc1)NC(=O)[C@@H](NC(=O)CNC(=O)[C@H](CCC(N)=O)NC(=O)C(C)(C)NC(=O)[C@@H](N)Cc1c[nH]cn1)[C@@H](C)O)[C@@H](C)O)C(=O)N[C@@H](CCC(=O)O)C(=O)N[C@@H](CO)C(=O)N[C@@H](CCCCN)C(=O)N[C@@H](CCCNC(=N)N)C(=O)N[C@@H](C)C(=O)N[C@@H](CCCNC(=N)N)C(=O)N[C@@H](CCC(=O)O)C(=O)N[C@@H](Cc1ccccc1)C(=O)N[C@H](C(=O)N[C@@H](CCC(N)=O)C(=O)N[C@@H](Cc1c[nH]c2ccccc12)C(=O)N[C@@H](CC(C)C)C(=O)N[C@@H](CC(C)C)C(=O)N[C@@H](CCCCNC(=O)CC[C@H](NC(=O)CC[C@H](NC(=O)[C@H](CO)NC(=O)[C@H](CCC(=O)O)NC(=O)[C@H](CO)NC(=O)CC[C@H](NC(=O)CC[C@H](NC(=O)CCCCCCCCCCCCCCCCC(=O)O)C(=O)O)C(=O)O)C(=O)O)C(=O)O)C(=O)N[C@H](C(N)=O)[C@@H](C)O)C(C)C [Example 54, N^ε28-[(4S)-4-carboxy-4-[[(4S)-4-carboxy-4-[[(2S)-2-[[(2S)-4-carboxy-2-[[(2S)-2-[[(4S)-4-carboxy-4-[[(4S)-4-carboxy-4-(17-carboxyheptadecanoylamino)butanoyl]amino]butanoyl]amino]-3-hydroxypropanoyl]amino]butanoyl]amino]-3-hydroxypropanoyl]amino]butanoyl]amino]butanoyl]-[Aib2,Leu10,Glu15,Lys17,Arg20,Glu21,Leu27,Lys28]-Glucagon amide] (H-H[Aib]QGTFTSDLSKYLESKRAREFVQWLLK([γGlu-γGlu-Ser-Glu-Ser-γGlu-γGlu-C18 diacid])T-NH2; N-terminus assumed)
